Data as given in PMC3368506 (Journal of the American Chemical Society, 2012).
Where two headings read alike, the source gives them in different places. One block for each compound: values may come before it.

Columns and labels:
[1] = target: Cu^2+–Aβ42 species (Homo sapiens, UniProt P05067); assay: H2O2 production, HRP/Amplex Red assay; assay type: biochemical; settings: reducing conditions (sodium ascorbate)
[2] = system: Neuro2A (N2A) cells; assay: Cytotoxicity, Alamar Blue cell viability assay; assay type: cell-based, Mouse
[3] = 1:1 metal:ligand, 50 μM each, ref [78], cited from earlier work
[4] = pH 7.4; 1:1 metal:ligand, 50 μM each; ref [78]; cited from earlier work

Chain of Cu^2+–Aβ42 species (P05067 672-713 limits assumed): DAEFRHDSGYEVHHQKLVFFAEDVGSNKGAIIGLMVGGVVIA

- Reduction of H2O2 production by Cu–Aβ42 species [1]: almost no effect
Structure (SMILES): Oc1c(I)cc(Cl)c2cccnc12 [CQ, clioquinol]
- Cell survival, disaggregation conditions ([2]; Aβ42 fibrils 20 μM + compound 2 μM + Cu^2+ 20 μM): marked cell toxicity
- Cell survival ([2]; concentrations >2 μM): < 30%

- Reduction of H2O2 production by Cu–Aβ42 species [1]: almost no effect
Structure (SMILES): c1cnc2c(c1)ccc1cccnc12 [phen, phenanthroline]

More lines, now with the values behind:

Structure (SMILES): O=C(O)CN(CCN(CC(=O)O)CC(=O)O)CCN(CC(=O)O)CC(=O)O [DTPA, diethylenetriaminepentaacetic acid]
- pCu (−log[Cu^2+]free) ([3]; pH 6.6): 9.7
- pCu (−log[Cu^2+]free) ([3]; pH 7.4): 10.7
- pZn (−log[Zn^2+]free) [4]: 9.3

Structure (SMILES): O=C(O)CN(CCN(CC(=O)O)CC(=O)O)CC(=O)O [EDTA, ethylenediaminetetraacetic acid]
- Cell survival ([2]; up to 20 μM concentration): 90–95%

Structure (SMILES): CN(Cc1ccccn1)Cc1ccccn1 [L*, N-methyl-N,N-bis(2-pyridylmethyl)amine]
- Reduction of H2O2 production by Cu–Aβ42 species [1]: dramatic reduction
